Assay results reported in PMC7377239, “Cardiovascular Effects of Polychlorinated Biphenyls and Their Major Metabolites” (Environmental Health Perspectives, 2020).
Where two headings read alike, the source gives them in different places.

Columns and labels:
[1] = test system: iCell cardiomyocytes (human iPSC-derived cardiomyocytes); experiment: High-content imaging of cytotoxicity and mitochondrial integrity in iPSC-CMs; type: cell-based; settings: Homo sapiens; for viability at 0.01 µM / activity at 0.01 µM / viability at 0.1 µM / activity at 0.1 µM / viability at 1 µM / activity at 1 µM / viability at 10 µM / activity at 10 µM / viability at 100 µM / activity at 100 µM: 0.00 µM = 100.00; for viability at 0.1 µM / activity at 0.1 µM: 0.10 µM
Procedure, shortened: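 This assay measured cytotoxicity and mitochondrial integrity in iPSC cardiomyocytes held in 40μL maintenance medium. After compound exposure, a 2× staining solution with Hoechst 33342 (4μg/mL) and MitoTracker™ Orange (0.4μM) was applied for 15 min at 37°C. Cells were washed, fixed with 3.7% formaldehyde, imaged on DAPI and Cy3 channels, and scored in MetaXpress®.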

HUVECs = experiment: High-content imaging cytotoxicity in HUVECs, 24 h; type: cell-based, human; settings: Homo sapiens, HUVEC, 24 h, HUVEC; for viability at 0.01 µM / activity at 0.01 µM / viability at 0.1 µM / activity at 0.1 µM / viability at 1 µM / activity at 1 µM / viability at 10 µM / activity at 10 µM / viability at 100 µM / activity at 100 µM: 0.00 µM = 100.00; for viability at 0.1 µM / activity at 0.1 µM: 0.10 µM
Procedure, shortened: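 Point-of-departure values come from four-parameter logistic fits of vehicle-normalized (0.5% DMSO) imaging readouts, cutoff one SD of vehicle means, 100μM where no concentration–response. Cells: HUVEC monolayers, passages 1–5, treated 24 h at 37°C, 5% CO2, then Hoechst 33342/MitoTracker Orange/calcein AM stained, imaged at 10×.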

[2] = Cardiomyocyte, 1.5 h, read-out: cm.cam.90min
[3] = Cardiomyocyte, 1.5 h, read-out: cm.mii.90min
[4] = Cardiomyocyte, 1.5 h, read-out: cm.mito.90min
[5] = Cardiomyocyte, 1.5 h, read-out: cm.tc.90min
[6] = Cardiomyocyte, 24 h, read-out: cm.cam.24hrs
[7] = Cardiomyocyte, 24 h, read-out: cm.mii.24hrs
[8] = Cardiomyocyte, 24 h, read-out: cm.mito.24hrs
[9] = Cardiomyocyte, 24 h, read-out: cm.tc.24hrs
[10] = HUVECs, 24 hr, read-out: huvec.cyto.24hr
[11] = HUVECs, 24 hr, read-out: huvec.mito.24hr
[12] = HUVECs, 24 hr, read-out: huvec.mitoint.24hr
[13] = HUVECs, 24 hr, read-out: huvec.nma.24hr
[14] = HUVECs, 24 hrs, read-out: huvec.tc.24hrs

O=C1C=CC(=O)C(c2ccc(Cl)cc2)=C1 [4-Cl-BQ, 2-(4-Chlorophenyl)benzo-2,5-quinone]
viability at 0.01 µM [1, 2]: 103%
activity at 0.01 µM [1, 3]: 106%
activity at 0.01 µM [1, 4]: 103%
viability at 0.01 µM [1, 5]: 103%
viability at 0.1 µM [1, 2]: 96.5%
activity at 0.1 µM [1, 3]: 116%
activity at 0.1 µM [1, 4]: 95.9%
viability at 0.1 µM [1, 5]: 96.2%
viability at 1 µM [1, 2]: 100%
activity at 1 µM [1, 3]: 117%
activity at 1 µM [1, 4]: 100%
viability at 1 µM [1, 5]: 100%
viability at 10 µM [1, 2]: 103%
activity at 10 µM [1, 3]: 91.5%
activity at 10 µM [1, 4]: 102%
viability at 10 µM [1, 5]: 103%
viability at 100 µM [1, 2]: 29.9%
activity at 100 µM [1, 3]: 8.08%
activity at 100 µM [1, 4]: 0.09%
viability at 100 µM [1, 5]: 100%
minimal effective concentration ([1]; Cardiomyocyte, 1.5 h, cardiomyocytes (cm), cam, 90 min, read-out: POD cm.cam.90min): 37.6 µM
minimal effective concentration ([1]; Cardiomyocyte, 1.5 h, cardiomyocytes (cm), mii, 90 min, read-out: POD cm.mii.90min): 9.33 µM
minimal effective concentration ([1]; Cardiomyocyte, 1.5 h, cardiomyocytes (cm), mito, 90 min, read-out: POD cm.mito.90min): 38.7 µM
minimal effective concentration ([1]; Cardiomyocyte, 1.5 h, cardiomyocytes (cm), tc, 90 min, read-out: POD cm.tc.90min): 100 µM
viability at 0.01 µM [1, 6]: 92.6%
activity at 0.01 µM [1, 7]: 100%
activity at 0.01 µM [1, 8]: 89.4%
viability at 0.01 µM [1, 9]: 92.8%
viability at 0.1 µM [1, 6]: 98.4%
activity at 0.1 µM [1, 7]: 110%
activity at 0.1 µM [1, 8]: 96.5%
viability at 0.1 µM [1, 9]: 99.1%
viability at 1 µM [1, 6]: 105%
activity at 1 µM [1, 7]: 97.3%
activity at 1 µM [1, 8]: 103%
viability at 1 µM [1, 9]: 105%
viability at 10 µM [1, 6]: 51.1%
activity at 10 µM [1, 7]: 128%
activity at 10 µM [1, 8]: 50.9%
viability at 10 µM [1, 9]: 50.4%
viability at 100 µM [1, 6]: 66.6%
activity at 100 µM [1, 7]: 0.9%
activity at 100 µM [1, 8]: 0.05%
viability at 100 µM [1, 9]: 100%
minimal effective concentration ([1]; Cardiomyocyte, 24 h, cardiomyocytes (cm), cam, 24 hrs, read-out: POD cm.cam.24hrs): 0.06 µM
minimal effective concentration ([1]; Cardiomyocyte, 24 h, cardiomyocytes (cm), mii, 24 hrs, read-out: POD cm.mii.24hrs): 46.4 µM
minimal effective concentration ([1]; Cardiomyocyte, 24 h, cardiomyocytes (cm), mito, 24 hrs, read-out: POD cm.mito.24hrs): 3.85 µM
minimal effective concentration ([1]; Cardiomyocyte, 24 h, cardiomyocytes (cm), tc, 24 hrs, read-out: POD cm.tc.24hrs): 100 µM
minimal effective concentration ([1]; iPSC-CM, 1.5 h, iPSC-CM, read-out: cm.cam.90min POD): 37.6 µM
minimal effective concentration ([1]; iPSC-CM, 1.5 h, iPSC-CM, read-out: cm.mii.90min POD): 9.33 µM
minimal effective concentration ([1]; iPSC-CM, 1.5 h, iPSC-CM, read-out: cm.mito.90min POD): 38.7 µM
minimal effective concentration ([1]; iPSC-CM, 1.5 h, iPSC-CM, read-out: cm.tc.90min POD): 100 µM
minimal effective concentration ([1]; iPSC-CM, 24 h, iPSC-CM, read-out: cm.cam.24hrs POD): 0.06 µM
minimal effective concentration ([1]; iPSC-CM, 24 h, iPSC-CM, read-out: cm.mii.24hrs POD): 46.4 µM
minimal effective concentration ([1]; iPSC-CM, 24 h, iPSC-CM, read-out: cm.mito.24hrs POD): 3.85 µM
minimal effective concentration ([1]; iPSC-CM, 24 h, iPSC-CM, read-out: cm.tc.24hrs POD): 100 µM
minimal effective concentration (HUVECs; cyto, 24 hr, read-out: POD huvec.cyto.24hr): 0.00637 µM
minimal effective concentration (HUVECs; mito, 24 hr, read-out: POD huvec.mito.24hr): 0.08 µM
minimal effective concentration (HUVECs; mitoint, 24 hr, read-out: POD huvec.mitoint.24hr): 0.68 µM
minimal effective concentration (HUVECs; nma, 24 hr, read-out: POD huvec.nma.24hr): 0.53 µM
minimal effective concentration (HUVECs; tc, 24 hr, read-out: POD huvec.tc.24hr): 0.00637 µM
viability at 0.01 µM (HUVECs; [10]): 89.2%
activity at 0.01 µM (HUVECs; [11]): 87.8%
activity at 0.01 µM (HUVECs; [12]): 92.4%
activity at 0.01 µM (HUVECs; [13]): 101%
viability at 0.1 µM (HUVECs; [10]): 101%
activity at 0.1 µM (HUVECs; [11]): 101%
activity at 0.1 µM (HUVECs; [12]): 105%
activity at 0.1 µM (HUVECs; [13]): 101%
viability at 1 µM (HUVECs; [10]): 75.5%
activity at 1 µM (HUVECs; [11]): 69.3%
activity at 1 µM (HUVECs; [12]): 58.6%
activity at 1 µM (HUVECs; [13]): 81.8%
viability at 10 µM (HUVECs; [10]): 56%
activity at 10 µM (HUVECs; [11]): 30.5%
activity at 10 µM (HUVECs; [12]): 10.8%
activity at 10 µM (HUVECs; [13]): 74.2%
viability at 100 µM (HUVECs; [10]): 87.4%
activity at 100 µM (HUVECs; [11]): 1.29%
activity at 100 µM (HUVECs; [12]): 44%
activity at 100 µM (HUVECs; [13]): 73.5%
minimal effective concentration (HUVECs; HUVECs, 24 hr, top concentration 100.00 µM, read-out: huvec.cyto.24hr POD): 0.00637 µM
minimal effective concentration (HUVECs; HUVECs, 24 hr, top concentration 100.00 µM, read-out: huvec.mito.24hr POD): 0.08 µM
minimal effective concentration (HUVECs; HUVECs, 24 hr, top concentration 100.00 µM, read-out: huvec.mitoint.24hr POD): 0.68 µM
minimal effective concentration (HUVECs; HUVECs, 24 hr, top concentration 100.00 µM, read-out: huvec.nma.24hr POD): 0.53 µM
viability at 0.01 µM (HUVECs; [14]): 89.3%
viability at 0.1 µM (HUVECs; [14]): 101%
viability at 1 µM (HUVECs; [14]): 75.5%
viability at 10 µM (HUVECs; [14]): 56%
viability at 100 µM (HUVECs; [14]): 99.4%
minimal effective concentration (HUVECs; HUVECs, 24 hrs, top concentration 100.00 µM, read-out: huvec.tc.24hrs POD): 0.00637 µM
